US20260132129A1 (Genesis Therapeutics, Inc., priority 2022, published 2026)

Molecular target: T1, PI3Kα H1047R (T47D cells) (Homo sapiens, UniProt P42336, H1047R)
T1 construct: endogenous in cells; host or cells: T47D cells
Assay: PI3Kα cellular assay: pAKT HTRF in T47D cells after EGF stimulation
Type: cell-based
Details: for IC50: T47D cells (PI3Kα H1047R), pAKT S473 HTRF
Procedure: SKBR3 or T47D cells are seeded in DMEM containing 10% FBS at 25k cells/well into 96-well cell culture format. Cells are incubated overnight at 37° C. in a 5% CO2 incubator and the following day cell media is aspirated, adherent cells are washed 1× with room temperature PBS prior to serum-free media application. Cells are returned to 37° C. 5% CO2 incubator and incubated a further 16 hrs. Compounds are added to serum starved adherent cells with a top dose of 10,000 nM and 3× multiple dose reductions for a minimum dose of 0.5 nM diluted in DMSO. Cell/compound incubation continues for 1 hr in a 37° C., 5% CO2 incubator prior to 10 minute PIK3CA stimulation with 20 ng/ml EGF. Cells treated with 0.1% DMSO and 20 ng/mL EGF are employed as negative control, cells treated with 10 uM Alpelisib and 20 ng/mL EGF are employed as a positive control. After 10 mins, plates are removed from incubator and cells are lysed with buffer and shaking 45 minutes. […] 384 well plate is left overnight at room temperature before reading HTRF on an Envision plate reader.
ND denotes value not determined with that assay for the specified compound; • for T47D (H1047R) selectivity over SKBR3 (WT): A denotes >20-fold; B denotes 20-fold≥value>5-fold; C denotes ≤5-fold. ND denotes value not determined with that assay for the specified compound; and • for T47D pAKT lipophilic efficiency (LiPE): A denotes >4; B denotes 4≥value>2; C denotes ≤2. ND denotes value not determined with that assay for the specified compound.

[1] = selectivity of T47D (H1047R) over SKBR3 (WT) pAKT IC50
[2] = 1 hr compound, 20 ng/ml EGF 10 min
[3] = selectivity T47D (H1047R) over SKBR3 (WT), pAKT HTRF

T1 sequence (P42336 whole entry H1047R): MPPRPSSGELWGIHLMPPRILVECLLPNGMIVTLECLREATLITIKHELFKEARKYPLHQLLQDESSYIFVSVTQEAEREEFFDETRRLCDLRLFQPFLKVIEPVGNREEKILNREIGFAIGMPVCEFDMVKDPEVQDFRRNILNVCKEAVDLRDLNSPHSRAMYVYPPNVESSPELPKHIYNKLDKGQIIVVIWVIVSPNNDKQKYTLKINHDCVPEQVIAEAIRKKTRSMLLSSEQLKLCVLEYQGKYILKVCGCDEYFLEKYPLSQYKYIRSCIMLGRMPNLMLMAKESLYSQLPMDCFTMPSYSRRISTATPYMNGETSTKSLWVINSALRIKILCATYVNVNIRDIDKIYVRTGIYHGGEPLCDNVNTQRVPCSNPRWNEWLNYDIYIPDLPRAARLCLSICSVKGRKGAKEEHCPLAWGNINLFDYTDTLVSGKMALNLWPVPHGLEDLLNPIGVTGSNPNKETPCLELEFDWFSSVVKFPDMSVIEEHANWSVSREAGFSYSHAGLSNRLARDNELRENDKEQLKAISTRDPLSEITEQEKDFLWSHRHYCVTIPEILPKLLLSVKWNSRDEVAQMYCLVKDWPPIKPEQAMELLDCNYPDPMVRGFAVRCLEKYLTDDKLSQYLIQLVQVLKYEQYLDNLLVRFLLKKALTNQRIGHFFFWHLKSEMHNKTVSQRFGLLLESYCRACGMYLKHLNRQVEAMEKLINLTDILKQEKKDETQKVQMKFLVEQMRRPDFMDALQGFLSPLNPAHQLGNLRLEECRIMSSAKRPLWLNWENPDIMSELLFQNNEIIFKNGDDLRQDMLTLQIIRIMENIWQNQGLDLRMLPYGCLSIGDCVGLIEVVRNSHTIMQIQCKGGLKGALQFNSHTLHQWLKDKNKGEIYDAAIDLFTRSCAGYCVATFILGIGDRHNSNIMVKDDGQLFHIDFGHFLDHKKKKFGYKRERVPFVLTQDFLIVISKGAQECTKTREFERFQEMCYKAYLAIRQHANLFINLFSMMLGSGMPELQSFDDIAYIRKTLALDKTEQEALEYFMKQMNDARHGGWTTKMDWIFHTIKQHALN
T1 sequence (P27986 whole entry partner): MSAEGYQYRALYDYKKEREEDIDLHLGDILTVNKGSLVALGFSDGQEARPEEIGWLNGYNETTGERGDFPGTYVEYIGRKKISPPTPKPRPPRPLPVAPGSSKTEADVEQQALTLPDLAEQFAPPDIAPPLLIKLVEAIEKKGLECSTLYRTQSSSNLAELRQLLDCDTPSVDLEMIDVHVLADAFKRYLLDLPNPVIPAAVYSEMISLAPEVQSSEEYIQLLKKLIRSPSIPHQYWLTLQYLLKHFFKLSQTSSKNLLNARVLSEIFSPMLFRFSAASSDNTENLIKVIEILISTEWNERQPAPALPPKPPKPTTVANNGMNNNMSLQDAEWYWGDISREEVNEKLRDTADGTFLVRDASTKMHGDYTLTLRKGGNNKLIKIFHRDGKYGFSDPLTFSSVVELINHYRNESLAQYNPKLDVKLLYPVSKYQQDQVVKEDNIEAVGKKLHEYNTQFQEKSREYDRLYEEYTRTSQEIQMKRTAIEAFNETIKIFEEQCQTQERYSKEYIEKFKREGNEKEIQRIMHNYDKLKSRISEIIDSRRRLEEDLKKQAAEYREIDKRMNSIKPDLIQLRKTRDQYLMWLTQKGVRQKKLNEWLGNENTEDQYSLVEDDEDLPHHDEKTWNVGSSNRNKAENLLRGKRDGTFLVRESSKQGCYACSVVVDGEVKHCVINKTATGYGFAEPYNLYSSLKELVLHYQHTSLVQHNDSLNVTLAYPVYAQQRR

Row | SMILES | T47D pAKT S473 HTRF IC50 (H1047R): T47D (H1047R) selectivity over SKBR3 (WT) [1] | IC50 [2] [nM] | T47D pAKT S473 HTRF IC50 (H1047R): T47D (H1047R) selectivity over SKBR3 (WT) [3] | IC50 (EGF stimulation) [nM]
1 | Cc1cc([C@H](C)Nc2cccc3c2C(=O)NCC3)c2nc(N3CCOCC3)cc(=O)n2c1 [Compound 714] | C (C denotes ≤5-fold) | – | – | –
2 | Cc1cc(C(C)Nc2ccccc2C(=O)O)c2nc(N3CCN(c4ccncc4)CC3)cc(=O)n2c1 (centres unmarked) [Compound 467] | – | > 2000 | C (C denotes ≤5-fold) | –
3 | Cc1cc(C(C)Nc2ccccc2C(=O)O)c2nc(-c3ccc[nH]c3=O)cc(=O)n2c1 (centres unmarked) [Compound 144] | – | > 2000 | C (C denotes ≤5-fold) | –
4 | Cc1cc([C@H](C)Nc2ccccc2C(=O)O)c2nc(-c3ccnc(C)c3)c(C)c(=O)n2c1 [Compound 1068] | – | – | C (C denotes ≤5-fold) | > 2000
5 | Cc1cc([C@@H](C)Nc2ccccc2C(=O)O)c2nc(-c3ccc4c(c3)CC(F)(F)C4)c(C)c(=O)n2c1 [Compound 853] | A (A denotes >20-fold) | – | – | < 100
6 | Cc1cc([C@@H](C)Nc2ccccc2-c2ccnnc2)c2nc(-c3cnc(C)c(Cl)c3)c(C)c(=O)n2c1 [Compound 1141] | – | – | C (C denotes ≤5-fold) | –
7 | Cc1cc(C(C)Nc2ccccc2C(=O)O)c2nc(-c3ccc4c(c3)c(N)nn4C3CC3)cc(=O)n2c1 (centres unmarked) [Compound 870] | A (A denotes >20-fold) | – | – | 100 to 500
8 | Cc1cc([C@@H](C)Nc2ccccc2C(N)=O)c2nc(-c3ccc(C4CC4)nc3)c(C)c(=O)n2c1 [Compound 1153] | – | – | A (A denotes >20-fold) | 100 to 500
9 | Cc1cc(C(C)Nc2ccccc2C(=O)O)c2nc(C3=CCC(C4CN(C)C4)C=C3)c(C)c(=O)n2c1 (centres unmarked) [Compound 1322] | – | – | C (C denotes ≤5-fold) | –
10 | Cc1cc([C@H](C)Nc2ccccc2C(=O)O)c2nc(N3Cc4ccccc4C3)cc(=O)n2c1 (single isomer, unassigned) [Compound 393] | – | < 100 | A (A denotes >20-fold) | –
11 | COc1cccc(NC(C)c2cc(C)cn3c(=O)cc(N4Cc5ccccc5C4)nc23)c1CO (centres unmarked) [Compound 865] | C (C denotes ≤5-fold) | – | – | > 2000
12 | Cc1cc([C@H](C)Nc2ccccc2C(=O)O)c2nc(N3C[C@@H]4CC(F)(F)C[C@@H]4C3)cc(=O)n2c1 (single isomer, unassigned) [Compound 583] | – | < 100 | A (A denotes >20-fold) | –
13 | Cc1cc([C@@H](C)Oc2ccccc2C2(O)CS(=O)(=O)C2)c2nc(-c3cccc(F)c3)c(C)c(=O)n2c1 [Compound 1392] | – | – | C (C denotes ≤5-fold) | > 2000
14 | Cc1cc([C@@H](C)Nc2ccccc2C(=O)O)c2cc(-c3ccnnc3)cc(=O)n2c1 [Compound 483] | – | 500 to 2000 | B (B denotes 20-fold≥value>5-fold) | –
15 | Cc1cc([C@H](C)Nc2ccccc2S(N)(=O)=O)c2nc(-c3cnc4c(c3)c(C)cn4C)c(C)c(=O)n2c1 [Compound 1060] | – | – | C (C denotes ≤5-fold) | > 2000
16 | Cc1cc(C(C)Nc2cnccc2C(=O)O)c2nc(N3CCOCC3)cc(=O)n2c1 (centres unmarked) [Compound 194] | – | > 2000 | C (C denotes ≤5-fold) | –
17 | COc1cc(-c2nc3c([C@H](C)Nc4ccccc4C(=O)O)cc(C)cn3c(=O)c2C)cn2ncc(C#N)c12 [Compound 1292] | – | – | C (C denotes ≤5-fold) | > 2000
18 | Cc1cc(C(C)Nc2ccccc2C(=O)O)c2nc(-c3ccc4c(c3)c(N)nn4C)cc(=O)n2c1 (centres unmarked) [Compound 347] | – | 100 to 500 | A (A denotes >20-fold) | –
19 | Cc1cc([C@@H](C)Nc2ccccc2S(N)(=O)=O)c2nc(-c3cccc(C(F)F)c3)c(C)c(=O)n2c1 [Compound 1097] | – | – | A (A denotes >20-fold) | < 100
20 | Cc1cc([C@H](C)Nc2ccccc2C(=O)O)c2nc(N3C[C@H](C)C[C@H](C)C3)cc(=O)n2c1 [Compound 513] | – | > 2000 | C (C denotes ≤5-fold) | –
21 | CC(=O)NS(=O)(=O)c1ccccc1N[C@@H](C)c1cc(C)cn2c(=O)c(C)c(-c3ccc4c(c3)CC(F)(F)C4)nc12 [Compound 1040] | C (C denotes ≤5-fold) | – | – | –

Row | SMILES | T47D pAKT S473 HTRF IC50 (H1047R): T47D (H1047R) selectivity over SKBR3 (WT) [1] | IC50 [2] [nM] | T47D pAKT S473 HTRF IC50 (H1047R): T47D (H1047R) selectivity over SKBR3 (WT) [3] | IC50 (EGF stimulation) [nM]
22 | Cc1cc([C@@H](C)Nc2ccccc2C(=O)O)c2nc(N3CCC(C)(C)CC3)cc(=O)n2c1 [Compound 361] | – | < 100 | A (A denotes >20-fold) | –
23 | Cc1cc([C@@H](C)Nc2cc[nH]c2-c2ccnnc2)c2nc(N3Cc4ccccc4C3)c(C)c(=O)n2c1 [Compound 1014] | C (C denotes ≤5-fold) | – | – | –
24 | Cc1cc([C@H](C)Nc2ccccc2C(=O)O)c2nc(-c3ccc(CNc4[nH]cc(C)c4C#N)c(C)c3)c(C)c(=O)n2c1 [Compound 1307] | – | – | B (B denotes 20-fold≥value>5-fold) | –
25 | COc1ccc(-c2nc3c([C@H](C)Nc4ccccc4C(=O)O)cc(C)cn3c(=O)c2C)cc1 [Compound 1071] | – | – | C (C denotes ≤5-fold) | > 2000
26 | Cc1cc([C@@H](C)Oc2ccc(F)cc2C(=O)O)c2nc(N3CCOCC3)cc(=O)n2c1 [Compound 332] | – | > 2000 | C (C denotes ≤5-fold) | –
27 | CC1=NC(C)c2cc(-c3cc(=O)n4cc(C)cc([C@@H](C)Nc5ccccc5C(=O)O)c4n3)ccc21 (some centres unmarked) [Compound 752] | C (C denotes ≤5-fold) | – | – | –
28 | CC#Cc1nc2c([C@@H](C)Nc3ccccc3C(=O)O)cc(C)cn2c(=O)c1C [Compound 1205] | – | – | C (C denotes ≤5-fold) | > 2000
29 | Cc1cc([C@@H](C)Nc2ccccc2-c2ccnnc2)c2nc(N3Cc4ccccc4C3)c(C3CC3)c(=O)n2c1 [Compound 874] | – | – | – | > 2000
30 | Cc1cc([C@H](C)Nc2ccccc2C(=O)O)c2nc(-c3ccc4c(ccn4CC(N)=O)c3)cc(=O)n2c1 [Compound 741] | C (C denotes ≤5-fold) | – | – | –
31 | Cc1cc([C@@H](C)Nc2ccccc2C(=O)O)c2nc(-c3cc[nH]c(=O)c3)cc(=O)n2c1 [Compound 461] | – | > 2000 | C (C denotes ≤5-fold) | –
32 | Cc1cc([C@@H](C)Nc2ccccc2-c2cc(O)no2)c2nc(-c3cccc(F)c3)c(C)c(=O)n2c1 [Compound 1368, (R)-2-(3-fluorophenyl)-9-(1-((2-(3-hydroxyisoxazol-5-yl)phenyl)amino)ethyl)-3,7-dimethyl-4H-pyrido[1,2-a]pyrimidin-4-one] | – | – | C (C denotes ≤5-fold) | > 2000
33 | Cc1cc([C@H](C)Nc2cccc3onc(O)c23)c2nc(-c3ccccc3)c(C)c(=O)n2c1 [Compound 1403] | – | – | C (C denotes ≤5-fold) | –
34 | Cc1cc(C(C)Nc2ccccc2C(=O)O)c2nc(N3C[C@H](C)C[C@H](C(F)F)C3)cc(=O)n2c1 (some centres unmarked) [Compound 781] | A (A denotes >20-fold) | – | – | 100 to 500
35 | Cc1cc(C(C)Nc2ccccc2C(=O)O)c2nc(-c3ccc4c(c3)CCN4CC(N)=O)cc(=O)n2c1 (centres unmarked) [Compound 726] | B (B denotes 20-fold≥value>5-fold) | – | – | –
36 | Cc1cc(C(C)Nc2cccc3onc(O)c23)c2nc(-c3cccc(F)c3)c(C)c(=O)n2c1 (centres unmarked) [Compound 1375] | – | – | C (C denotes ≤5-fold) | > 2000
37 | Cc1cc([C@H](C)Nc2ccccc2-c2ccnnc2)c2nc(N3Cc4ccccc4C3)c(C)c(=O)n2c1 (single isomer, unassigned) [Compound 848] | A (A denotes >20-fold) | – | – | < 100
38 | Cc1cc([C@H](C)Nc2ccccc2C)c2nc(N3CCOCC3)cc(=O)n2c1 [Compound 249] | – | 500 to 2000 | C (C denotes ≤5-fold) | –
39 | CNC(=O)C#Cc1ccc(-c2nc3c([C@@H](C)Nc4ccccc4C(=O)O)cc(C)cn3c(=O)c2C)cc1F [Compound 1264] | – | – | A (A denotes >20-fold) | < 100
40 | Cc1cc(C(C)Nc2ccccc2C(N)=O)c2nc(-c3cnc(C)c(Cl)c3)c(C)c(=O)n2c1 (centres unmarked) [Compound 1094] | – | – | A (A denotes >20-fold) | 100 to 500
41 | Cc1cc([C@H](C)Nc2ccccc2C(=O)O)c2nc(-c3c(C)ccc4[nH]ncc34)cc(=O)n2c1 [Compound 814] | C (C denotes ≤5-fold) | – | – | > 2000
